This note sets out measurements from patent US9340535B2, “N-[5-(Aminosulfony1)-4-methyl-1,3-thiazol-2-yl]-N-methyl-2-[4-(2-pyridinyl)phenyl]acetamide mesylate monohydrate” (AiCuris GmbH & Co. KG, priority 2011, dated 2016).

≈ marks a conversion by molar mass, not a printed value. Where two headings read alike, the source gives them in different places.

Series [1] in a line: Thermal analysis and polymorphic stability (DSC, TGA). The series is classed as physicochemical. The following applies: for DSC: Differential Scanning Calorimetry; for TGA: Thermogravimetric Analysis. The method, then: Polymorphism refers to the ability of a solid material to exist in more than one crystal structure or solid form.
Upon mild heating (about 50° C. to 60° C.), the water content is reduced which would make these salts and the free base form extremely difficult to handle and to process during production and formulation. In contrast the hydrate of the mono mesylate salt is thermally stable and polymorphic stable at much higher temperatures of considerably above 100° C. as judged by TGA.
Moreover, exactly one mol equivalent water is incorporated into the crystal structure wherein the hydrogen atoms of the water molecule form hydrogen bridges with oxygen atoms of two different mesylate molecules. This well-defined position in the crystal lattice (see FIG. 3) is verified by the fact that water is released from the crystal only at high temperature, starting at 160° C.
(In general: In DSC, transitions show as peaks or steps in heat flow.)

Series [2] in a line: Water solubility, solubility screening. The settings on record: for Water solubility: Solubility screening.
The nature of series [3]: Crystallinity by X-ray diffraction, microscopy. The settings on record: for Crystallinity: X-ray diffraction, microscopy. In kind it is physicochemical.
A short description of series [4]: Stability to decomposition: storage at 90° C. for one week.
A short description of series [5]: Exposure in repeated dose 13-week toxicity study (free base). The settings on record: rat, in vivo, rats; for AUC(0-t): read-out: AUC(0-24).
Procedure: The exposure of rats to N-[5-(aminosulfonyl)-4-methyl-1,3-thiazol-2-yl]-N-methyl-2-[4-(2-pyridinyl)phenyl]acetamide in a repeated dose 13-week toxicity study performed with the free base N-[5-(aminosulfonyl)-4-methyl-1,3-thiazol-2-yl]-N-methyl-2-[4-(2-pyridinyl)phenyl]acetamide (free base) was compared to the exposures observed in a 26-week repeated dose toxicity study performed with the mesylate monohydrate. In both studies, the test items were administered as 0.5% (w/v) tylose suspensions, and the concentrations were adjusted to the equivalents of free base N-[5-(aminosulfonyl)-4-methyl-1,3-thiazol-2-yl]-N-methyl-2-[4-(2-pyridinyl)phenyl]acetamide.
A short description of series [6]: Stability to dissociation: stirring for one week at room temperature.
[7] abbreviates: female, 10 mg/kg/day, F, 10 mg/kg/day, day 1, 13-week toxicity study.
The mark [8] stands for this setting: female, 50 mg/kg/day, F, 50 mg/kg/day, day 1, 13-week toxicity study.
[9] abbreviates: female, 250 mg/kg/day, F, 250 mg/kg/day, day 1, 13-week toxicity study.
[10] abbreviates: male, 10 mg/kg/day, M, 10 mg/kg/day, day 1, 13-week toxicity study.
[11] abbreviates: male, 50 mg/kg/day, M, 50 mg/kg/day, day 1, 13-week toxicity study.
Setting [12] is: male, 250 mg/kg/day, M, 250 mg/kg/day, day 1, 13-week toxicity study.

As for `Cc1nc(N(C)C(=O)Cc2ccc(-c3ccccn3)cc2)sc1S(N)(=O)=O` [Free base, N-[5-(aminosulfonyl)-4-methyl-1,3-thiazol-2-yl]-N-methyl-2-[4-(2-pyridinyl)phenyl]acetamide], the “Thermal and polymorphic stability of hydrates (in words)” value (shortened to “Thermal and polymorphic stability”) in series [1] was “low thermal stability”; in series [1] (listed as free base form), “low thermal and low polymorphic stability”. Moreover, the “Thermal stability of hydrate” value in series [1] is reported as “labile”. In addition, the DSC result in series [1] was “loss of water before melting”. This molecule also yielded a TGA in series [1] of 8.8%. Besides, in series [2] (water), the solubility was determined as 2 µg/mL (≈ 4.97 µM). Further, in series [3], the Crystallinity entry is listed as “+”. Also, the Stability to decomposition result in series [4] is listed as “++”. The Cmax turned out to be 15300 ng/mL in series [5] (setting [7]); 25800 ng/mL in series [5] (female, 10 mg/kg/day, F, week 13, 13-week toxicity study); 35300 ng/mL in series [5] (setting [8]); 40500 ng/mL in series [5] (female, 50 mg/kg/day, F, week 13, 13-week toxicity study); 68900 ng/mL in series [5] (setting [9]); 83000 ng/mL in series [5] (female, 250 mg/kg/day, F, week 13, 13-week toxicity study). Besides, the Cmax in series [5] (setting [10]) was 13300 ng/mL; in series [5] (male, 10 mg/kg/day, M, week 13, 13-week toxicity study), 15000 ng/mL; in series [5] (setting [11]) it was 30600 ng/mL; in series [5] (male, 50 mg/kg/day, M, week 13, 13-week toxicity study), 30000 ng/mL; in series [5] (setting [12]) it was 53900 ng/mL; in series [5] (male, 250 mg/kg/day, M, week 13, 13-week toxicity study), 62800 ng/mL. Also, the AUC(0-t) is 159 µg·h/mL in series [5] (setting [7]); 211 µg·h/mL in series [5] (female, 10 mg/kg/day, F, 10 mg/kg/day, week 13, 13-week toxicity study); 409 µg·h/mL in series [5] (setting [8]); 455 µg·h/mL in series [5] (female, 50 mg/kg/day, F, 50 mg/kg/day, week 13, 13-week toxicity study); 966 µg·h/mL in series [5] (setting [9]); 1170 µg·h/mL in series [5] (female, 250 mg/kg/day, F, 250 mg/kg/day, week 13, 13-week toxicity study). Also, the AUC(0-t) in series [5] (setting [10]) was found to be 87.9 µg·h/mL; in series [5] (male, 10 mg/kg/day, M, 10 mg/kg/day, week 13, 13-week toxicity study), 133 µg·h/mL; in series [5] (setting [11]) it was 248 µg·h/mL; in series [5] (male, 50 mg/kg/day, M, 50 mg/kg/day, week 13, 13-week toxicity study), 332 µg·h/mL; in series [5] (setting [12]), 567 µg·h/mL; in series [5] (male, 250 mg/kg/day, M, 250 mg/kg/day, week 13, 13-week toxicity study), 661 µg·h/mL.
As for `Cc1nc(N(C)C(=O)Cc2ccc(-c3ccccn3)cc2)sc1S(N)(=O)=O.Cl` [1xHCl], in series [1], the “Thermal and polymorphic stability” value was “low thermal and low polymorphic stability”; the “Thermal stability of hydrate” value is on record as “labile”; the DSC result was “loss of water before melting”; the TGA is reported as 2.1%. Besides, the Water solubility in series [2] was found to be 39.4 mg/100 mL. Also, the Stability to dissociation result in series [6] was “++”. For the same molecule, the “Crystallinity of the hydrate during storage” value in series [3] (during storage) is given as “decrease of crystallinity”. The Stability to decomposition entry in series [4] is “++”.
Take `Cc1ccc(S(=O)(=O)O)cc1.Cc1nc(N(C)C(=O)Cc2ccc(-c3ccccn3)cc2)sc1S(N)(=O)=O` [1xTsOH]: in series [1], the “Thermal stability of hydrate” value is reported as “labile”, the DSC result was “loss of water before melting” and the TGA was 5.9%. Also, the “Thermal and polymorphic stability” value in series [1] (listed as monotosylate) is “low thermal stability”. The “Thermal and polymorphic stability” value in series [1] (listed as tosylate) is “low thermal and low polymorphic stability”. In series [2], this molecule had a Water solubility of 50 mg/100 mL. The Stability to dissociation entry in series [6] was “++”. Besides, in series [3], the Crystallinity result was “+”. For the same molecule, the Stability to decomposition entry in series [4] is “−”.

In general, solubility refers to the concentration that dissolves in the medium under given conditions. Broadly, the Cmax is the highest concentration seen after dosing.
